The values below come from article PMC6345779, “Hypoculoside, a sphingoid base-like compound from Acremonium disrupts the membrane integrity of yeast cells” (Scientific Reports, 2019).

As usually defined, the IC50 is the concentration needed to halve the response being measured.

The test system of data set [1] is Candida albicans strain SC5314. Kind of data set: Broth microdilution growth inhibition of Candida albicans (CLSI guidelines, OD600 after 24 h). The class given is cell-based. The note with it: strain SC5314, OD600 nm after 24 hours, read-out: IC50 for inhibition of growth of C. albicans cells. Here is the method: Figure 2 Hypoculoside has antifungal activity. (A) Workflow used in the purification and analysis of hypoculoside from Acremonium sp. F2434. (B) Structure of hypoculoside (8) and its aglycone derivative hypoculine (9). (C) Logarithmically growing Candida albicans cells were exposed to hypoculoside and amphotericin B at various concentrations in triplicates in a 96-well microplate. Growth of the cells was quantified by recording the absorbance at 600 nm after 24 hours. Growth (normalized with respect to DMSO-treated cells) is plotted against log of concentration of the compound. A picture of the microplate after 24 hours of incubation at 30 °C is shown in Supplementary Fig. S2A. (D) Effect of hypoculoside on the growth of Saccharomyces cerevisiae cells grown in YPD medium was analyzed in the similar way as for Candida albicans described above in C.
We evaluated the potency of hypoculoside by examining its effect on the growth of Candida albicans strain (SC5314) using the Clinical and Laboratory Standards Institute (CLSI) guidelines. We used the well-known antifungal amphotericin B as a positive control. We exposed logarithmically growing Candida albicans cells to hypoculoside and amphotericin B at various concentrations and monitored the growth by recording the OD600 nm after 24 hours. […]
Background: In broth dilution the organism is exposed to a series of concentrations in liquid medium.

The nature of data set [2]: Mammalian cell cytotoxicity assay (PrestoBlue cell viability, 72 hours). To be noted: human, A549, MIA PaCa-2, PANC-1, one range for the lines, read-out: cytotoxicity IC50 against human lung and pancreatic carcinoma cell lines. Format: cell-based. How it is done:
Effect of hypoculoside on the growth of three bacterial strains Staphylococcus aureus (ATCC 25923), Pseudomonas aeruginosa (ATCC 9027) and Klebsiella aerogenes (ATCC 13048) was assessed as previously described. Cytotoxicity of hypoculoside on the A549 human lung cell line and the pancreatic carcinoma cell lines MIA PaCa-2 and PANC-1 was determined as described before. A549 and MIA PaCa-2 were seeded at 1,500 cells per well, and PANC-1 cells were seeded at 2,500 cells per well in a 384-well microplate. Cells were treated with hypoculoside at various concentrations and incubated for 72 hours at 37 °C in the presence of 5% CO2. Cytotoxic effect of hypoculoside was measured using the PrestoBlue™ cell viability reagent (Life Technologies). Following incubation of the microplates with the dye for 2 hours, the fluorescence reading (Excitation/Emission: 560 nm/590 nm) was recorded using the Tecan Infinite M1000 Pro reader.

Another data set concerns BY4743 cells. Kind of data set: Propidium iodide (PI)-staining assay of plasma membrane integrity. The class given is cell-based, Saccharomyces cerevisiae. The note with it: 5.3 µM, after 2 hours. How it is done: Figure 8 Hypoculoside but not hypoculine disrupts the membrane integrity of yeast cells. (A) Wild type yeast cells pre-treated with either DMSO or hypoculoside (5.4 μM) were exposed to FM 4-64FX. Uptake of FM 4-64FX after 0′, 30′ and 120′ was analyzed by fluorescence microscopy of fixed cells. (B) Yeast cells were incubated with either DMSO or hypoculoside or hypoculine at different concentrations (1.8, 3.5 and 5.3 µM) for 30′ and 2 hours. They were then treated with propidium iodide (PI) and percentage of PI-staining cells was assayed by fluorescence microscopy. Representative images of cells visualized by bright field and fluorescence microscopy are shown along with quantification of PI-staining cells (N = 100 cells) in (C).
We then tested whether hypoculoside causes membrane leakage using the membrane impermeant dye propidium iodide (PI). […] We then incubated the cells with PI and visualized its uptake by fluorescence microscopy. […]
BY4743 cells (OD600 nm ≈ 1) were exposed to various concentrations of hypoculoside or hypoculine or DMSO in YPD for 30′ and 2 hours. […] PI uptake by cells was assayed by bright-field and fluorescence microscopy [Excitation/Emission (nm): 535/617] and the percentage of PI-staining cells (N ≥ 100) was calculated.

In the case of `CC(N)C(O)CCCCCCCCCCCCCCCCCCC(O)C(C)OC1OC(CO)C(O)C(O)C1O` (stereo not drawn) [hypoculoside, Hypoculoside], the IC50 in data set [1] worked out at 7.6 µM. Moreover, the IC50 at 72 h in data set [2] was 9 to 14 µM. In the data set on BY4743 cells, the “cells that had internalized PI” value is reported as “about 60%”.
